Test results published in patent US8871280B1, “Compositions and methods for treating fungal activity in plants or soil” (The United States of America, as represented by the …, priority 2011, dated 2014).

What was measured:
Rhizoctonia solani [1] = assay: Filter disk fumigation method, mycelial growth inhibition on PDA; format: cell-based, Rhizoctonia solani AG-4, isolate Rs 23A; conditions: for Fumig1 % inhibition: fumigation experiment 1; for Fumig2 % inhibition: fumigation experiment 2
Experimental: (§1) Fungal isolate and preparation of inoculum: Rhizoctonia solani AG-4, isolate Rs 23A is a highly virulent pathogenic isolate which infects many vegetables, ornamentals and turfgrasses (Lewis, J. A., and G. C. Papavizas, Soil Biology and Biochemistry, 9:195-201 (1987)). The fungus was grown in potato dextrose agar (PDA) plates and fungal plugs from the freshly growing mycelium were mixed with moist sterilized cracked wheat in a 2 L flask for 15 days in dark at 22° C. (Lakshman, D. K., et al., Proceedings of the National Academy of Science, USA, 95: 6425-6429 (1998)). The infested wheat was air dried in a sterile hood for 3 days, blended in a homogenizer and sieved through a mesh and stored at 2° C. before soil inoculation. A dose response of the inocula was carried out by thoroughly mixing using 0.25, 0.5, 0.75, 1.0, 1.25 and 1.50 g inoculums per Kg dry weight potting soil plus sterile water to maintain 25-30% moisture and incubating at room temperature for two weeks before sowing cucumber (cv muncher) seeds with the infested soil. The percent germination and post-emergence damping off of cucumber seedlings were recorded. The lowest inoculums dose that induced 100% postemergence damping off was estimated to be 1 to 1.25 g/Kg soil for inocula prepared over the span of the experiments. For soil fumigation with plant extracts (PEs), each time the minimum inoculum dose giving rise to 100% damping off was used.
In the second protocol, the chemical was kept not in direct contact with the fungus and we hypothesized that the plant extract will most likely influence the growth of the pathogen by fumigation action. In this approach, three sterile 15 mm filter paper (Whatman International Ltd, Maidstone, UK) disks were placed on the edge of each of three plates on the PDA. Each disk was impregnated in the center with various amounts (5-50 ul/disk) of the test solution/suspension. For negative control, only soybean oil was placed in the filter disk. […] The average radial growth was calculated and the experiment was repeated one more time. Percent growth inhibition was calculated as reported for poison bed assay.

Rhizoctonia solani [2] = assay: Greenhouse suppression of damping off of cucumber seedlings in R. solani infested soil amended with plant extract; format: in vivo, Rhizoctonia solani AG-4, isolate Rs 23A; conditions: for % Disease suppression (+ PE + R. solani): cucumber damping off, soil amendment at 0.3% (v/w), four weeks after sowing
cucumber seeds = assay: Greenhouse assay of seed germination and phytotoxicity, soil treated with plant extract alone
Experimental: Soil treatment: For each treatment, 300 g of dry greenhouse soli (Pro-mix, Premier Horticulture LTD, Red Hill, Pa.) was thoroughly mixed with Rhizoctonia inoculum and incubated for 15 days as described above. […] The infested soil treated with only the carrier solution served as an untreated control. Following the treatment, the soil was thoroughly stirred to mix the contents and incubated in a double polythene bag closed tightly in the dark at room temperature for four days for fumigation to occur. Following the incubation, the bag was opened to allow as much PE to dissipate as possible. This was done by sprinkling the surface soil with sterile water every other day, and stirring the soil once every day for seven days. For assay of effect on seed germination and phytotoxicity of the plant extracts, soil was treated with plant extract formulations alone.
Greenhouse studies: Treated soil from each treatment was distributed to 4-inch plastic pots into which 12 seeds of cucumbers (95-100% germination) were sown and lightly watered to keep soil moist. The treatments were color coded and pots were randomized across treatment. All plants were kept in a greenhouse between 20° C. (night) to 26° C. (day) with 14 h of light. There were three pots per treatment in each experiment, and the experiment was repeated three times. As positive control, a broad spectrum popular soil fungicide Banrot® 40 WP (The Scotts Company, Ohio) was used following manufacturer's recommendation to control the disease. Total number of seedlings without any sign of damping off in each pot was recorded and percentage of disease suppression were calculated four weeks after sowing cucumber seeds.

Rhizoctonia solani [3] = assay: Fungicidal vs fungistatic potential (regrowth of mycelial plugs on fresh PDA, 7 days); format: cell-based, Rhizoctonia solani AG-4, isolate Rs 23A
Experimental: The fungicidal and fungistatic potential of the PEs were determined by the method described by Garber and Houstan (Garber R. H., and B. R. Houston, Phytopathology, 49: 449-450 (1959)). In brief, three 5 mm diameter plugs were taken from the peripheral mycelial growth from each plate and placed in a fresh PDA plate. Following incubation at room temperature for 7 days, observations were recorded for new mycelial growth (fungistatic) or no mycelial growth (fungicidal). As control, peripheral mycelial plugs from soybean oil amended PDA plates were checked for fresh mycelial growth in fresh PDA plates.

Rhizoctonia solani [4] = assay: Poison food technique (contact action), mycelial growth inhibition in PDA; format: cell-based, Rhizoctonia solani AG-4, isolate Rs 23A; conditions: for PoisonB1 % inhibition: poison bed experiment 1; for PoisonB2 % inhibition: poison bed experiment 2
Experimental: as §1
In vitro bioassays: Two in vitro bioassay methods were used to investigate the mycelial growth inhibitory potentials of PEs. In the poison food technique, test chemical/plant extract was mixed at concentrations of 15, 30, 45, 60, 75, and 150 μl per 20 ml autoclaved PDA at 50° C., poured on three sterile disposable plastic plates (100×15 mm, Fisherbrand) at 20 ml/plate and cooled to room temperature to solidify (Dhingra, O.D., and J. B. Sinclair, 1995, Basic Plant Pathology Methods, 2nd Edition, Lewis Publishers, Boca Raton and London). […] Each plate was seeded in the center with a 5 mm diameter agar disk of the freshly grown Rhizoctonia pathogen, mycelial side facing the medium, and sealed with stretched Parafilm® M (Fisher Scientific). The plates were incubated in the dark at room temperature and when the pathogen reached to the edge of the plates in the control treatment (soybean oil), radial measurement of fungal growth in plates treated with PEs were recorded by taking three measurements from each plate. The experiment was repeated one more time. The percent mycelial growth inhibition (MGI) due to PE was calculated using the following formula: […] where dc=Avg. radial growth in mm of pathogen in control plate; dt=avg. radial growth in mm of pathogen in treated plate.

Row | Compound | Fumig1 % inhibition (Rhizoctonia solani [1]; amount oil 15 μL/20 mL plate) [%] | Fumig2 % inhibition (Rhizoctonia solani [1]; amount oil 15 μL/20 mL plate) [%] | Fumig1 % inhibition (Rhizoctonia solani [1]; amount oil 30 μL/20 mL plate) [%] | Fumig2 % inhibition (Rhizoctonia solani [1]; amount oil 30 μL/20 mL plate) [%] | Fumig1 % inhibition (Rhizoctonia solani [1]; amount oil 45 μL/20 mL plate) [%] | Fumig2 % inhibition (Rhizoctonia solani [1]; amount oil 45 μL/20 mL plate) [%] | Fumig1 % inhibition (Rhizoctonia solani [1]; amount oil 60 μL/20 mL plate) [%] | Fumig2 % inhibition (Rhizoctonia solani [1]; amount oil 60 μL/20 mL plate) [%] | Fumig1 % inhibition (Rhizoctonia solani [1]; amount oil 75 μL/20 mL plate) [%] | Fumig2 % inhibition (Rhizoctonia solani [1]; amount oil 75 μL/20 mL plate) [%] | Fumig1 % inhibition (Rhizoctonia solani [1]; amount oil 150 μL/20 mL plate) [%] | Fumig2 % inhibition (Rhizoctonia solani [1]; amount oil 150 μL/20 mL plate) [%] | % Disease suppression (+ PE + R. solani) (Rhizoctonia solani [2]) [%] | PoisonB1 % inhibition (Rhizoctonia solani [4]; amount oil 15 μL/20 mL plate) [%] | PoisonB2 % inhibition (Rhizoctonia solani [4]; amount oil 15 μL/20 mL plate) [%] | PoisonB1 % inhibition (Rhizoctonia solani [4]; amount oil 30 μL/20 mL plate) [%] | PoisonB2 % inhibition (Rhizoctonia solani [4]; amount oil 30 μL/20 mL plate) [%] | PoisonB1 % inhibition (Rhizoctonia solani [4]; amount oil 45 μL/20 mL plate) [%] | PoisonB2 % inhibition (Rhizoctonia solani [4]; amount oil 45 μL/20 mL plate) [%] | PoisonB1 % inhibition (Rhizoctonia solani [4]; amount oil 60 μL/20 mL plate) [%] | other results
1 | Cc1ccc(C(C)C)cc1O [Carvacrol] | 88 | 87 | 94 | 91 | 100 | 91 | 100 | 93 | 99 | 96 | 100 | 100 | 47.25 | 100 | 100 | 100 | 100 | 100 | 100 | 100 | Avg. seed germination (+ PE only) (cucumber seeds; cucumber, 12 seeds sown per pot, soil amended with 0.3% PE, no pathogen): 4.00; % Seed germination (+ PE only) (cucumber seeds; cucumber, soil amended with 0.3% PE, no pathogen): 33.33%; Phytotoxicity (cucumber seed germination and seedling growth), in words (cucumber seeds; greenhouse, soil amendment): slightly inhibited; Effect (fumigation) (Rhizoctonia solani [3]; amount oil 15 μL/20 mL plate): S; Effect (fumigation) (Rhizoctonia solani [3]; amount oil 30 μL/20 mL plate): S; Effect (fumigation) (Rhizoctonia solani [3]; amount oil 45 μL/20 mL plate): S; Effect (fumigation) (Rhizoctonia solani [3]; amount oil 60 μL/20 mL plate): S; Effect (fumigation) (Rhizoctonia solani [3]; amount oil 75 μL/20 mL plate): S; Effect (fumigation) (Rhizoctonia solani [3]; amount oil 150 μL/20 mL plate): S; PoisonB2 % inhibition (Rhizoctonia solani [4]; amount oil 60 μL/20 mL plate): 100%; PoisonB1 % inhibition (Rhizoctonia solani [4]; amount oil 75 μL/20 mL plate): 100%; PoisonB2 % inhibition (Rhizoctonia solani [4]; amount oil 75 μL/20 mL plate): 100%; PoisonB1 % inhibition (Rhizoctonia solani [4]; amount oil 150 μL/20 mL plate): 100%; PoisonB2 % inhibition (Rhizoctonia solani [4]; amount oil 150 μL/20 mL plate): 100%
2 | C=CC(C)(O)CCC=C(C)CCC=C(C)C (mixture of isomers) [Nerolidol] | 0 | 0 | 0 | 40 | 0 | 42 | 0 | 41 | 0 | 42 | 0 | 41 |  | 71 | 78 | 78 | 81 | 83 | 87 | 84 | Effect (fumigation) (Rhizoctonia solani [3]; amount oil 15 μL/20 mL plate): S; Effect (poison bed, contact action) (Rhizoctonia solani [3]; amount oil 15 μL/20 mL plate): S; Effect (fumigation) (Rhizoctonia solani [3]; amount oil 30 μL/20 mL plate): S; Effect (poison bed, contact action) (Rhizoctonia solani [3]; amount oil 30 μL/20 mL plate): S; Effect (fumigation) (Rhizoctonia solani [3]; amount oil 45 μL/20 mL plate): S; Effect (poison bed, contact action) (Rhizoctonia solani [3]; amount oil 45 μL/20 mL plate): S; Effect (fumigation) (Rhizoctonia solani [3]; amount oil 60 μL/20 mL plate): S; Effect (poison bed, contact action) (Rhizoctonia solani [3]; amount oil 60 μL/20 mL plate): S; Effect (fumigation) (Rhizoctonia solani [3]; amount oil 75 μL/20 mL plate): S; Effect (poison bed, contact action) (Rhizoctonia solani [3]; amount oil 75 μL/20 mL plate): S; Effect (fumigation) (Rhizoctonia solani [3]; amount oil 150 μL/20 mL plate): S; Effect (poison bed, contact action) (Rhizoctonia solani [3]; amount oil 150 μL/20 mL plate): S; PoisonB2 % inhibition (Rhizoctonia solani [4]; amount oil 60 μL/20 mL plate): 90%; PoisonB1 % inhibition (Rhizoctonia solani [4]; amount oil 75 μL/20 mL plate): 87%; PoisonB2 % inhibition (Rhizoctonia solani [4]; amount oil 75 μL/20 mL plate): 92%; PoisonB1 % inhibition (Rhizoctonia solani [4]; amount oil 150 μL/20 mL plate): 89%; PoisonB2 % inhibition (Rhizoctonia solani [4]; amount oil 150 μL/20 mL plate): 99%
3 | C=CCc1ccc(O)c(OC)c1 [Eugenol] |  |  |  |  |  |  |  |  |  |  |  |  | 44.42 |  |  |  |  |  |  |  | Avg. seed Germination (+ PE + R. solani) (Rhizoctonia solani [2]; cucumber, 12 seeds sown per pot, infested soil amended with 0.3% PE): 5.33; Avg. seed germination (+ PE only) (cucumber seeds; cucumber, in vivo, 0.3 % of PE in soil (3000 ppm)): 10.00
4 | C=CCN=C=S [Allyisothiocynate] |  |  |  |  |  |  |  |  |  |  |  |  | 88.92 |  |  |  |  |  |  |  | Inhibition of R. solani growth by fumigation action, in words (Rhizoctonia solani [1]; in vitro, filter disk): potent inhibitors; Fungicidal vs fungistatic nature at all concentrations tested (Rhizoctonia solani [3]; in vitro, fumigation and contact, all concentrations tested): fungicidal; Inhibition of R. solani growth by contact (poison bed assay), in words (Rhizoctonia solani [4]; in vitro, PDA): potent inhibitors
5 | C=CCN=C=S [Allylisothiocyanate] | 100 | 100 | 100 | 100 | 100 | 100 | 100 | 100 | 100 | 100 | 100 | 100 |  | 100 | 100 | 100 | 100 | 100 | 100 | 100 | PoisonB2 % inhibition (Rhizoctonia solani [4]; amount oil 60 μL/20 mL plate): 100%; PoisonB1 % inhibition (Rhizoctonia solani [4]; amount oil 75 μL/20 mL plate): 100%; PoisonB2 % inhibition (Rhizoctonia solani [4]; amount oil 75 μL/20 mL plate): 100%; PoisonB1 % inhibition (Rhizoctonia solani [4]; amount oil 150 μL/20 mL plate): 100%; PoisonB2 % inhibition (Rhizoctonia solani [4]; amount oil 150 μL/20 mL plate): 100%
